We go through one molecule from paper PMC5844530, “Fosmetpantotenate (RE-024), a phosphopantothenate replacement therapy for pantothenate kinase-associated neurodegeneration: Mechanism of action and efficacy in nonclinical models” (PLoS ONE, 2018).

The test system of this assay is liver and brain CoA. The experiment in a line: Labeled experiments: incorporation of isotopically labeled fosmetpantotenate into CoA. Format: in vivo, mouse. The note with it: 125 μg intrastriatally; 6 h. The text has this:
Fosmetpantotenate was labeled with three ^13C and one ^15N in the PA moiety and with one ^18O in the phosphate moiety, as indicated in Fig 10. The premise of this experiment is the following: if PPA incorporated into CoA originates from fosmetpantotenate metabolism, then all isotope labels (including the ^18O) will be retained in the CoA molecule, resulting in an increase in molecular weight of 6 atomic mass units (AMU) with respect to unlabeled CoA ([M+H]^+ = 774.3 vs 768.3, respectively; Fig 10, Path A). However, if fosmetpantotenate is hydrolyzed to PA, and PA is then re-phosphorylated by WT PanK to yield PPA, or if the ^18O is exchanged with water, then the ^18O would be lost in the process, resulting in a CoA molecule with a 4-AMU increase in molecular weight over unlabeled CoA ([M+H]^+ = 772.3 vs 768.3, respectively, […], Path B). CoA derived from endogenous PA/PPA will have the unchanged molecular weight ([M+H]^+ = 768.3).
Animal phase: C57BL6N mice, 8-week old and 19 to 21 g obtained from Charles River (Como, Italy) were used in these studies. One group of mice (N = 3 per time point) received a single oral dose of 500 mg/kg isotopically labeled fosmetpantotenate dissolved in 20% hydroxypropyl-β-cyclodextrin. Another set of mice (N = 8 per time point) received a direct administration of isotopically labeled fosmetpantotenate at 125 μg (25 mg/mL of aCSF containing 147 mM NaCl, 3.0 mM KCl, 1.2 mM CaCl2, and 1.2 mM MgCl2) via cannula into striatum. Brain, liver, and blood samples were collected at pre-dose, 6 h, 12 h (brain only), and 24 h, and were snap frozen in liquid nitrogen.
Two additional groups of mice (N = 6 per time point for each group) received 3 daily doses (8 am, 2 pm, and 8 pm to mimic an anticipated human dosing schedule) of isotopically labeled fosmetpantotenate at either 1.25 μg (0.625 mg/mL aCSF) or 12.5 μg (6.25 mg/mL aCSF) via ICV infusion cannula (2 μL), for up to 10 consecutive days. Brain (striatum) samples were collected at pre-dose, and at 12 h following the third dose on days 1, 3, 7, and 10, and were snap frozen in liquid nitrogen.
Sample processing: Brain (striatum) and liver tissues were homogenized in a Precellys homogenizer (Bertin technologies, Montigny-le-Bretonneux, France) with 3 volumes of water for each volume of tissue (1:4 dilution). Protein was precipitated by adding 500 μL methanol to 100 μL of homogenate (1:6 dilution), mixed well, and centrifuged. Blood cells (1 volume) were treated with 1:8 v:v water:methanol (1:10 dilution), mixed, and centrifuged. The supernatants (200 μL for brain and blood cells and 100 μL for liver) were dried under nitrogen, reconstituted with 100 μL ammonium acetate 10 mM (pH ~5), and injected (10 μL) into the LC for high resolution mass spectrometry (HRMS) analyses.
CoA determination: An Acquity UPLC (Waters) system was used. Samples were chromatographed on a Luna C18 column (50 x 2.0 mm; 5 μm), with a 0.4 mL/min flow rate and a 10 μL injection volume. The mobile phases were (A), 10 mM ammonium acetate in water, pH 6.8 and (B) acetonitrile:2-propanol (9:1; v:v). The gradient was started with 2% (B) and was increased linearly to reach 20% (B) at 5 min; the gradient was ramped to reach 90% (B) at 5.1 min and kept isocratic at 90% (B) through 7.1 min.
The detector was a Waters QTOF Synapt mass spectrometer, with an electrospray ion source operating in the positive scanning mode acquiring in full scan mode (accuracy <5 ppm). The following exact masses were determined: 768.1230 for CoA, 772.1301 for CoA +4 AMU, and 774.1344 for CoA +6 AMU.
The CoA levels obtained by MS/MS analyses were corrected for ^18O isotopic incorporation. CoA levels were not adjusted for the 1% and 2% of ^12C and ^14N, respectively, in the labeled fosmetpantotenate. […]

With `COC(=O)CCNC(=O)[C@H](O)C(C)(C)COP(=O)(N[C@@H](C)C(=O)OC)Oc1ccccc1` (mixture of isomers) [Fosmetpantotenate], the “Brain CoA (%) +6 AMU” value was found to be 36.2%.
